# Measured values as given in ChEMBL document CHEMBL1130794, “Phthalimidomethyl as a drug pro-moiety. Probing its reactivity” (Bioorg Med Chem Lett, 1998).
# Test: Second-order rate constant for the alkaline hydrolysis was determined
# Type: ADME
row,Structure (SMILES),kHO [M⁻¹ s⁻¹]
1,O=C1c2ccccc2C(=O)N1CO[N+](=O)[O-],79.7
2,CC1(C)S[C@@H]2[C@H](NC(=O)Cc3ccccc3)C(=O)N2[C@H]1C(=O)OCN1C(=O)c2ccccc2C1=O,65.6
3,O=C(OCN1C(=O)c2ccc([N+](=O)[O-])cc2C1=O)c1ccccc1,559
4,COc1ccc(C(=O)OCN2C(=O)c3ccccc3C2=O)cc1,33.9
5,O=C1c2ccccc2C(=O)N1CCl,105.8
6,O=C(OCN1C(=O)c2ccccc2C1=O)c1ccccc1,50.4
7,O=C(OCN1C(=O)c2ccccc2C1=O)c1ccc([N+](=O)[O-])cc1,76.8

# The remaining lines, values ahead:
row,kHO [M⁻¹ s⁻¹],Structure (SMILES)
1,35.3,COCN1C(=O)c2ccccc2C1=O
2,56.7,O=C(OCN1C(=O)c2ccccc2C1=O)c1ccc(Cl)cc1
3,37.5,CN1C(=O)c2ccccc2C1=O
4,27.3,Cc1ccc2c(c1)C(=O)N(COC(=O)c1ccccc1)C2=O
